Data taken from patent US11261201B2 (priority 2018, dated 2022).
Converted amounts (≈) assume the structure as drawn. Where two headings read alike, the source gives them in different places.

Experiments:
A. baumannii = assay: Gram negative MIC protocol (OD600, LB, 24 h); details: Acinetobacter baumannii
Method: (§1) Overnight bacterial cultures were grown in LB with no added antibiotics at 37° C. with shaking. A 1:1000 dilution of these cultures into LB was exposed to concentration gradients of compounds in 96-well plates (100 μL per well assay volume). Resulting plates were incubated at 37° C. for 24 h without shaking, and OD600 was measured at the end of the incubation. MICs were determined as the lowest concentrations at which OD600 remained at baseline.

E. coli = assay: Gram negative MIC protocol (OD600, LB, 24 h); details: Escherichia coli
Method: as §1

H37RvMA = assay: Tuberculosis Alamar Blue/Resazurin assay (MIC); type: cell-based; details: Mycobacterium tuberculosis, H37RV, read-out: WT H37Rv MTB Activity
[1] = read-out: MIC A. baumannii LB Media
[2] = read-out: MIC E. coli delta-TolC LB Media, E. coli delta-TolC, LB media, OD600
[3] = read-out: MIC WT E. coli LB Media, WT E. coli, LB media, OD600
[4] = read-out: MIC A. baumannii LB Media, A. baumannii, LB media, 24 h, OD600

| SMILES | MIC (A. baumannii; [1]) [µM] | MIC (E. coli; [2]) [µM] | MIC (E. coli; [3]) [µM] | MIC (H37RvMA) [µM] | MIC (A. baumannii; [4]) [µM] | MIC (E. coli; read-out: MIC E. coli delta-TolC LB Media) [µM] | MIC (E. coli; read-out: MIC WT E. coli LB Media) [µM] | MIC (H37RvMA; WT H37Rv MTB) [µM] |
| --- | --- | --- | --- | --- | --- | --- | --- | --- |
| CC(C)(Cc1ccc(C(F)(F)F)cc1)NCc1ccccc1 [B93] | > 150 | > 150 | > 150 | > 150 |  |  |  |  |
| C[C@@H](CC1CCCCC1)NCc1ccccc1 [B94] | 91 (≈ 21.1 µg/mL) | 7 (≈ 1.62 µg/mL) | 17 (≈ 3.93 µg/mL) | > 150 |  |  |  |  |
| C[C@H](CC1CCCCC1)NCc1ccccc1 [B95] | > 150 | > 150 | > 150 | 55 (≈ 12.7 µg/mL) |  |  |  |  |
| FC(F)(F)c1ccc(CC2(NCc3ccccc3)CC2)cc1 [B96] |  | 90 (≈ 27.5 µg/mL) | > 150 | > 150 | > 150 |  |  |  |
| Fc1ccc(CC2(NCc3ccccc3)CC2)cc1 [B97] |  | > 150 | > 150 | > 150 | > 150 |  |  |  |
| CC1(c2ccc(F)cc2)N(Cc2ccccc2)C12CC2 (centres unmarked) [B98] |  |  |  | > 150 | > 150 | 150 (≈ 40.1 µg/mL) | > 150 |  |
| c1ccc(CNCC2CCCCCC2)cc1 [B99] |  | > 150 | > 150 |  | > 150 |  |  | 55 (≈ 12 µg/mL) |
| CC1(CNCc2ccccc2)CCCCCC1 [B100] |  | > 150 | > 150 |  | > 150 |  |  | > 150 |
| CC(NCc1ccccc1)C1CCCCCC1 (centres unmarked) [B101] |  | 40 (≈ 9.26 µg/mL) | 70 (≈ 16.2 µg/mL) |  | 150 (≈ 34.7 µg/mL) |  |  | > 150 |
| c1ccc(CNCCC2CCCCCC2)cc1 [B102] |  | 90 (≈ 20.8 µg/mL) | 120 (≈ 27.8 µg/mL) |  | 150 (≈ 34.7 µg/mL) |  |  | 91 (≈ 21.1 µg/mL) |
| CC(CNCc1ccccc1)C1CCCCC1 (centres unmarked) [B103] |  | 150 (≈ 34.7 µg/mL) | 150 (≈ 34.7 µg/mL) |  | > 150 |  |  | > 150 |
| c1ccc(CNCCC23CC4CC(CC(C4)C2)C3)cc1 [B104] |  | 91 (≈ 24.5 µg/mL) | > 150 |  | > 150 |  |  | 55 (≈ 14.8 µg/mL) |
| c1ccc(CNCCc2cccc3c2NCCC3)cc1 [B105] |  | > 150 | > 150 |  | > 150 |  |  | 91 (≈ 24.2 µg/mL) |
| CC(Cc1ccc2ccccc2c1)NCc1ccccc1 (centres unmarked) [B106] |  | > 150 | > 150 | 150 (≈ 41.3 µg/mL) | > 150 |  |  |  |
| c1ccc(CNCC2CC23CCCc2ccccc23)cc1 (centres unmarked) [B107] |  | > 150 | > 150 |  | > 150 |  |  | > 150 |
| CC1(C)Cc2cccc(CCNCc3ccccc3)c2O1 [B108] | > 150 | > 150 | > 150 | > 150 |  |  |  |  |

| SMILES | MIC (A. baumannii; [1]) [µM] | MIC (E. coli; [2]) [µM] | MIC (E. coli; [3]) [µM] | MIC (H37RvMA) [µM] | MIC (A. baumannii; [4]) [µM] | MIC (E. coli; read-out: MIC E. coli delta-TolC LB Media) [µM] | MIC (E. coli; read-out: MIC WT E. coli LB Media) [µM] | MIC (H37RvMA; WT H37Rv MTB) [µM] |
| --- | --- | --- | --- | --- | --- | --- | --- | --- |
| CC1(C)CCC2(CC2CNCc2ccccc2)c2ccccc21 (centres unmarked) [B109] |  | 91 (≈ 27.8 µg/mL) | > 150 |  | 150 (≈ 45.8 µg/mL) |  |  | 55 (≈ 16.8 µg/mL) |
| CC(NCc1ccccc1)C1Cc2ccccc21 (centres unmarked) [B110] |  | > 150 | > 150 |  | > 150 |  |  | > 150 |
| COc1ccc(CCNCc2ccccc2)c2ccccc12 [B111] |  | 150 (≈ 43.7 µg/mL) | > 150 |  | 150 (≈ 43.7 µg/mL) |  |  | 33 (≈ 9.62 µg/mL) |
| COc1ccc2c(c1)CCCC2CNCc1ccccc1 (centres unmarked) [B112] |  | > 150 | > 150 |  | > 150 |  |  | > 150 |
| C[C@H](NCc1ccccc1)C1CCCc2ccccc21 (some centres unmarked) [B113] |  | > 150 | > 150 |  | > 150 |  |  | > 150 |
| c1ccc(CNCCc2ccc3cc[nH]c3c2)cc1 [B114] | > 150 | > 150 | > 150 | > 150 |  |  |  |  |
| c1ccc(CNCCc2ccc3[nH]ncc3c2)cc1 [B115] |  | > 150 | > 150 |  | > 150 |  |  | > 150 |
| CN1CC2CCC1C(CNCc1ccccc1)C2 (centres unmarked) [B116] |  | > 150 | > 150 | > 150 | > 150 |  |  |  |
| Cc1ccc2ncc(CCNCc3ccccc3)cc2c1 [B117] |  | > 150 | > 150 |  | > 150 |  |  | > 150 |
| c1ccc(CNCCC2CSc3ccccc3O2)cc1 (centres unmarked) [B118] |  | > 150 | > 150 |  | > 150 |  |  | > 150 |
| c1ccc(CNCCc2ccnc3ccccc23)cc1 [B119] |  | > 150 | > 150 |  | > 150 |  |  | > 150 |
| FC1(F)Oc2ccc(CCNCc3ccccc3)cc2O1 [B120] | > 150 | > 150 | > 150 | > 150 |  |  |  |  |
| c1ccc(CNCCN2CCC3(CCCCC3)CC2)cc1 [B121] |  | > 150 | > 150 |  | > 150 |  |  | > 150 |
| C1=CC2CCC1CC2CNCc1ccccc1 (centres unmarked) [B122] |  | > 150 | > 150 |  | > 150 |  |  | 150 (≈ 34.1 µg/mL) |
| c1ccc(CNCC2CC3CCC2CC3)cc1 (centres unmarked) [B123] |  | > 150 | > 150 |  | > 150 |  |  | 150 (≈ 34.4 µg/mL) |
| c1ccc(CNCCN2CCCC3CCCCC32)cc1 (centres unmarked) [B124] |  | > 150 | > 150 |  | > 150 |  |  | > 150 |
